Source: patent US8088761B2, “Enzyme inhibitors” (Cancer Research Technology Limited, priority 2005, dated 2012)
Read-outs that look alike come from different tables or passages of the source.

Key:
Aurora-A = molecular target: T1, Aurora-A (Homo sapiens, UniProt O14965); test: Flashplate Aurora A enzyme inhibition assay; format: biochemical
T1 sequence (O14965 1-403): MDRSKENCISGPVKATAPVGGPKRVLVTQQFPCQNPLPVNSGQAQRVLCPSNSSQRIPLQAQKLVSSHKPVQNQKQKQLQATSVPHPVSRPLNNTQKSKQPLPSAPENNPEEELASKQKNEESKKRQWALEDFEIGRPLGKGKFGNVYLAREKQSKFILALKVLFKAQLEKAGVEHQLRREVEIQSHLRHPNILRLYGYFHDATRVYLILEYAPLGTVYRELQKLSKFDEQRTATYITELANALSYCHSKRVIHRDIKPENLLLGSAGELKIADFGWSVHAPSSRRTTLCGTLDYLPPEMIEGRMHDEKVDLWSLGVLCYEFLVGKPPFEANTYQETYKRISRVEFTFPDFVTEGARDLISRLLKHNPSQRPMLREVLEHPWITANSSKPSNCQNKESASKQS
Description: Flashplate® Assay for Identification and Evaluation of Aurora-A Inhibitors
On this assay 384-well Basic Flashplate® (SMP400E, PerkinElmer) as solid assay platform was used. The plates were coated overnight at 4° C. with […] at 100 μg/ml in PBS buffer and used after being washed twice with PBS. 5 μl of compound in 2% DMSO was added to each well followed by 15 μl master mix of kinase buffer (50 mM Tris pH 7.5, 10 mM NaCl, 2.5 mM MgCl2, 1 mM […], 20 μM ATP, and 0.025 μCi/μl ^33P-ATP). Finally, 250 ng per well of Aurora-A enzyme was added. The plate was shaken for approximately 2 min on a flat-bed plate shaker (Wellmix, Denley, UK) and incubated for 2 hours at room temperature. The reaction was stopped by washing the plate twice on a 16-pin wash (ELX50 BioTek Instruments Ltd., Northstar, Bedford, UK) with 10 mM sodium pyrophosphate. The plate was then read on a TopCount-NX™ (PerkinElmer Life Sciences UK Ltd., Hounslow, UK).

HCT116 cells = test: Cell viability assay (MTT) in HCT116 cell line; format: cell-based; settings: Homo sapiens, HCT-116, 72 hrs, IC50 range, read-out: HCT116 cell growth inhibition
Description: Cell Viability Assay: Determination of IC50 of Aurora Inhibitors in HCT116 Cell Line Using MTT Assay. The effects of compounds of the Examples on cellular proliferation were determined using the MTT assay according to manufacturer's instructions (Sigma). Briefly, the human colon tumour cells HCT116, were seeded in triplicate into 96-well plates at 2500 cells/well 24 hours before treatment with a range of concentrations of Aurora inhibitors (0-50 μM). After 72 hrs, 15 μl/well of 0.5% 3-(4,5-dimethylthiazol-2-yl)-2,5-diphenyltetrazolium bromide (MTT) was added to the cells for 4 hrs at 37° C., the dye-stained viable cells were extracted by adding 150 μl/well of dimethyl sulphoxide (DMSO). […] The IC50 was calculated using the Prism software.

[1] = Flashplate assay, IC50 range, read-out: Aurora-A inhibition

Row | IC50 (Aurora-A; [1]) [nM] | IC50 (HCT116 cells) [nM] | SMILES | IC50 (Aurora-A) [nM]
1 | < 500 | – | CC(C)(C)OC(=O)NCc1cccc(-c2nc3c(N4CCN(Cc5cccnc5)CC4)c(Br)cnc3[nH]2)c1 [Example 91, tert-Butyl 3-(6-bromo-7-(4-(pyridin-3-ylmethyl)piperazin-1-yl)-3H-imidazo[4,5-b]pyridin-2-yl)benzylcarbamate] | –
2 | < 500 | 500 to 2000 | NCc1ccc(-c2nc3c(N4CCN(CC(=O)Nc5nccs5)CC4)c(Br)cnc3[nH]2)cc1 [Example 7, 2-{4-[2-(4-Aminomethyl-phenyl)-6-bromo-3H-imidazo[4,5-b]pyridin-7-yl]-piperazin-1-yl}-N-thiazol-2-yl-acetamide] | –
3 | < 500 | 500 to 2000 | Brc1cnc2[nH]c(-c3ccc(N4CCOCC4)cc3)nc2c1N1CCN(Cc2cncnc2)CC1 [Example 123, 4-(4-(6-Bromo-7-(4-(pyrimidin-5-ylmethyl)piperazin-1-yl)-3H-imidazo[4,5-b]pyridin-2-yl)phenyl)morpholine] | –
4 | < 500 | < 500 | Cc1nc(CN2CCN(c3c(Br)cnc4[nH]c(-c5ccc(CN6CCOCC6)cc5)nc34)CC2)cs1 [Example 156, 4-(4-(6-Bromo-7-(4-((2-methylthiazol-4-yl)methyl)piperazin-1-yl)-3H-imidazo[4,5-b]pyridin-2-yl)benzyl)morpholine] | –
5 | 500 to 2000 | – | CCN1CCN(c2c(Br)cnc3[nH]c(-c4ccc(N(C)C)cc4)nc23)CC1 [Example 47, 4-(6-Bromo-7-(4-ethylpiperazin-1-yl)-3H-imidazo[4,5-b]pyridin-2-yl)-N,N-dimethylaniline] | –
6 | < 500 | – | CC(C)c1nc(CN2CCN(c3c(Br)cnc4[nH]c(-c5ccc(CN6CCOCC6)cc5)nc34)CC2)co1 [Example 146, 4-(4-(6-Bromo-7-(4-((2-isopropyloxazol-4-yl)methyl)piperazin-1-yl)-3H-imidazo[4,5-b]pyridin-2-yl)benzyl)morpholine] | –
7 | < 500 | – | CC(C)(C)OC(=O)N1CCN(c2ccc(-c3nc4c(N5CCN(Cc6cccnc6)CC5)c(Br)cnc4[nH]3)cc2)CC1 [Example 103, tert-Butyl 4-(4-(6-bromo-7-(4-(pyridin-3-ylmethyl)piperazin-1-yl)-3H-imidazo[4,5-b]pyridin-2-yl)phenyl)piperazine-1-carboxylate] | –
8 | < 500 | – | Cc1nc(CN2CCN(c3c(Br)cnc4[nH]c(-c5ccc(CN6CCN(C(=O)OC(C)(C)C)CC6)cc5)nc34)CC2)cs1 [Example 157, tert-Butyl 4-(4-(6-bromo-7-(4-((2-methylthiazol-4-yl)methyl)piperazin-1-yl)-3H-imidazo[4,5-b]pyridin-2-yl)benzyl)piperazine-1-carboxylate] | –
9 | < 500 | – | FC(F)(F)c1ccc(CN2CCN(c3c(Br)cnc4[nH]c(-c5ccc(N6CCOCC6)cc5)nc34)CC2)cn1 [Example 126, 4-(4-(6-Bromo-7-(4-((6-(trifluoromethyl)pyridin-3-yl)methyl)piperazin-1-yl)-3H-imidazo[4,5-b]pyridin-2-yl)phenyl)morpholine] | –
10 | – | < 500 | Brc1cnc2[nH]c(-c3ccc(CN4CCOCC4)cc3)nc2c1N1CCN(Cc2ccncc2)CC1 [Example 68, 6-Bromo-2-(4-morpholin-4-ylmethyl-phenyl)-7-(4-pyridin-4-ylmethyl-piperazin-1-yl)-3H-imidazo[4,5-b]pyridine] | –
11 | < 500 | – | CN(C)c1ccc(-c2nc3c(N4CCNCC4)c(Br)cnc3[nH]2)cc1 [Example 15, [4-(6-Bromo-7-piperazin-1-yl-3H-imidazo[4,5-b]pyridin-2-yl)-phenyl]-dimethyl-amine] | –
12 | 2000 to 10000 | – | COc1ccc(C(=O)N2CCN(c3c(Cl)cnc4[nH]c(-c5ccc(N(C)C)cc5)nc34)CC2)cc1 [Example 18, (4-(6-Chloro-2-(4-(dimethylamino)phenyl)-3H-imidazo[4,5-b]pyridin-7-yl)piperazin-1-yl)(4-methoxyphenyl)methanone] | –
13 | < 500 | – | COc1ccc(-c2nc3c(N4CCN(Cc5csc(C(C)C)n5)CC4)c(Br)cnc3[nH]2)cc1 [Example 153, 4-((4-(6-Bromo-2-(4-methoxyphenyl)-3H-imidazo[4,5-b]pyridin-7-yl)piperazin-1-yl)methyl)-2-isopropylthiazole] | –
14 | 500 to 2000 | – | COc1ncccc1-c1nc2c(N3CCN(Cc4cccnc4)CC3)c(Br)cnc2[nH]1 [Example 55, 6-Bromo-2-(2-methoxypyridin-3-yl)-7-(4-(pyridin-3-ylmethyl)piperazin-1-yl)-3H-imidazo[4,5-b]pyridine] | –
15 | 500 to 2000 | – | CC(C)(C)OC(=O)NCc1ccc(-c2nc3c(N4CCN(CC(=O)Nc5nccs5)CC4)c(Br)cnc3[nH]2)cc1 [Example 6, (4-{6-Bromo-7-[4-(thiazol-2-ylcarbamoylmethyl)-piperazin-1-yl]-3H-imidazo[4,5-b]pyridin-2-yl}-benzyl)-carbamic acid tert-butyl ester] | –
16 | – | – | CN(C)c1ccc(-c2nc3c(N4CCN(C(=O)Nc5ccccc5)CC4)c(Br)cnc3[nH]2)cc1 [Example 39, 4-(6-Bromo-2-(4-(dimethylamino)phenyl)-3H-imidazo[4,5-b]pyridin-7-yl)-N-phenylpiperazine-1-carboxamide] | < 500
17 | < 500 | – | COc1ccc(-c2nc3c(N4CCN(Cc5nccs5)CC4)c(Br)cnc3[nH]2)cc1 [Example 151, 2-((4-(6-Bromo-2-(4-methoxyphenyl)-3H-imidazo[4,5-b]pyridin-7-yl)piperazin-1-yl)methyl)thiazole] | –
18 | < 500 | – | CC(c1ccccc1)N1CCN(c2c(Br)cnc3[nH]c(-c4ccc(N5CCC(O)CC5)cc4)nc23)CC1 (stereo not drawn) [Example 88, 1-(4-{6-Bromo-7-[4-(1-phenyl-ethyl)-piperazin-1-yl]-3H-imidazo[4,5-b]pyridin-2-yl}-phenyl)-piperidin-4-ol] | –
19 | 500 to 2000 | – | CN(C)c1ccc(-c2nc3c(N4CCN(Cc5c(F)cccc5Cl)CC4)c(Cl)cnc3[nH]2)cc1 [Example 16, 4-(6-Chloro-7-(4-(2-chloro-6-fluorobenzyl)piperazin-1-yl)-3H-imidazo[4,5-b]pyridin-2-yl)-N,N-dimethylaniline] | –
20 | < 500 | – | Cc1nc(CN2CCN(c3c(Br)cnc4[nH]c(-c5ccc(N6CCN(C(=O)OC(C)(C)C)CC6)cc5)nc34)CC2)cs1 [Example 158, tert-Butyl 4-(4-(6-bromo-7-(4-((2-methylthiazol-4-yl)methyl)piperazin-1-yl)-3H-imidazo[4,5-b]pyridin-2-yl)phenyl)piperazine-1-carboxylate] | –
21 | 500 to 2000 | – | CCOC(=O)C1CC1c1nc2c(N3CCN(CC(=O)Nc4nccs4)CC3)c(Br)cnc2[nH]1 (stereo not drawn) [Example 45, Ethyl 2-(6-bromo-7-(4-(2-oxo-2-(thiazol-2-ylamino)ethyl)piperazin-1-yl)-3H-imidazo[4,5-b]pyridin-2-yl)cyclopropanecarboxylate] | –
22 | < 500 | – | CN(C)c1ccc(-c2nc3c(N4CCN(CCNC(=O)Nc5ccccc5)CC4)c(Br)cnc3[nH]2)cc1 [Example 41, 1-(2-(4-(6-Bromo-2-(4-(dimethylamino)phenyl)-3H-imidazo[4,5-b]pyridin-7-yl)piperazin-1-yl)ethyl)-3-phenylurea] | –
23 | < 500 | – | CN(C)c1ccc(-c2nc3c(N4CCN(CCOc5ccccc5)CC4)c(Cl)cnc3[nH]2)cc1 [Example 9, (4-{6-Chloro-7-[4-(2-phenoxy-ethyl)-piperazin-1-yl]-3H-imidazo[4,5-b]pyridin-2-yl}-phenyl)-dimethyl-amine] | –
24 | < 500 | – | CCNC(=O)N1CCN(c2c(Br)cnc3[nH]c(-c4ccc(N(C)C)cc4)nc23)CC1 [Example 43, 4-(6-Bromo-2-(4-(dimethylamino)phenyl)-3H-imidazo[4,5-b]pyridin-7-yl)-N-ethylpiperazine-1-carboxamide] | –

Row | SMILES | IC50 (Aurora-A; [1]) [nM] | IC50 (HCT116 cells) [nM] | IC50 (Aurora-A) [nM]
25 | CN(C)c1ccc(-c2nc3c(N4CCN(Cc5ccncc5)CC4)c(Br)cnc3[nH]2)cc1 [Example 31, 4-(6-Bromo-7-(4-(pyridin-4-ylmethyl)piperazin-1-yl)-3H-imidazo[4,5-b]pyridin-2-yl)-N,N-dimethylaniline] | < 500 | 500 to 2000 | –
26 | CN(C)c1ccc(-c2nc3c(N4CCN(c5ccccc5)CC4)c(Br)cnc3[nH]2)cc1 [Example 48, 4-(6-Bromo-7-(4-phenylpiperazin-1-yl)-3H-imidazo[4,5-b]pyridin-2-yl)-N,N-dimethylaniline] | < 500 | – | –
